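Step 1: Grow cells in 96-well plates. Step 2: Expose to compound for 48 hours at 5 concentrations. Step 3: Interpolate endpoints linearly; if unreached, use highest concentration. TGI: concentration producing complete growth inhibition.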 Where a SMILES comes first, the peptide text is derived from it.
How the values were obtained:
Assay in all cases: NCI tumour cell line growth inhibition, 48 h
MOLT-4 leukemia = tested on: MOLT-4 leukemia
SK-MEL-28 melanoma = tested on: SK-MEL-28 melanoma
A549 NSCLC = tested on: A549 NSCLC
HCT-116 colon = tested on: HCT-116 colon
SNB-75 CNS = tested on: SNB-75 CNS
A498 renal = tested on: A498 renal
COLO 205 colon = tested on: COLO 205 colon
UO-31 renal = tested on: UO-31 renal

Structure (SMILES) | TGI (MOLT-4 leukemia) | TGI (SK-MEL-28 melanoma) | TGI (A549 NSCLC) | TGI (HCT-116 colon) | TGI (SNB-75 CNS) | TGI (A498 renal) | TGI (COLO 205 colon) | TGI (UO-31 renal)
CC(=O)NC(CS)C(=O)NC(CO)C(=O)NC(CO)C(=O)NC(Cc1c[nH]c2ccccc12)C(=O)N1CCCC1C(=O)NC(CO)C(=O)NC(Cc1c[nH]c2ccccc12)C(=O)NC(Cc1c[nH]cn1)C(=O)NC(CO)C(=O)NC(Cc1c[nH]c2ccccc12)C(=O)NCC(=O)NCC(=O)NC(C)C(=O)NC(CCC(N)=O)C(=O)NC(CCCCN)C(=O)NC(C)C(=O)NC(CCCNC(=N)N)C(=O)NC(CCCCN)C(N)=O (configuration not stated) (Ac-CSSWPSWHSWGGAQKARK-NH2; configuration not given here) | > 50 µM | 20.9 µM | > 50 µM | > 50 µM | 42.1 µM | > 50 µM | 28.2 µM | > 50 µM
CCCNC(=O)Cn1c2c(c3ccccc31)CCCC2 | > 100 µM | > 100 µM | > 100 µM | > 100 µM | – | > 100 µM | > 100 µM | 89.9 µM
N#CC12CC(C=O)=C(N)C1(C#N)CC(C=O)=C2N (configuration not stated) | > 100 µM | > 100 µM | > 100 µM | > 100 µM | > 100 µM | > 100 µM | > 100 µM | > 100 µM
COc1ccc(N[C@H](CS(=O)c2ccc(C)cc2)C(F)(F)F)cc1 (some centres not stated) | > 100 µM | > 100 µM | > 100 µM | > 100 µM | > 100 µM | – | > 100 µM | > 100 µM
C=CC(=C)CCC(Br)C(C)(C)Br (configuration not stated) | 45.7 µM | > 100 µM | > 100 µM | > 100 µM | > 100 µM | – | > 100 µM | > 100 µM
Cc1cc(C)n(CN(CCCCO)Cn2nc(C)cc2C)n1 | 50.7 µM | 39.3 µM | > 100 µM | 36.4 µM | – | > 100 µM | 31.7 µM | 69.1 µM
Cc1ccc(F)c2[nH]c(-c3ccccc3)cc(=O)c12 | > 100 µM | > 40.1 µM | > 53.5 µM | > 100 µM | > 30.6 µM | > 100 µM | 24.9 µM | > 50.1 µM
O=S(=O)(O)c1ccc(N=Nc2ccc(N=Nc3c(O)ccc4ccc(S(=O)(=O)O)cc34)cc2)cc1 | > 100 µM | > 100 µM | > 100 µM | > 100 µM | – | – | > 100 µM | > 100 µM
O=P(O)(O)c1ccc2c(c1)OCCOCCOCCOCCO2 | > 100 µM | > 100 µM | > 100 µM | > 100 µM | > 100 µM | > 100 µM | > 100 µM | > 100 µM
COP(=O)(/C=C/C(NC(=O)C(Cl)(Cl)Cl)c1ccccc1)OC (configuration not stated) | > 100 µM | > 100 µM | > 100 µM | > 100 µM | > 100 µM | > 100 µM | > 100 µM | > 100 µM
CSc1c(C(N)=S)c(N)nn1-c1ccccc1 | > 100 µM | > 100 µM | > 100 µM | > 100 µM | > 100 µM | > 100 µM | > 100 µM | > 100 µM
COc1c(C)c(C/C=C(\C)CC/C=C(\C)CC/C=C(\C)CC/C=C(\C)CCC=C(C)C)c(OC)c(OC)c1OC | > 100 µM | – | 48.1 µM | > 100 µM | > 100 µM | – | > 100 µM | 70.4 µM
Cc1cn(C(CO)OC(CO)CN(O)C2C3CC4CC(C3)CC2C4)c(=O)[nH]c1=O (configuration not stated) | > 100 µM | > 100 µM | > 100 µM | > 100 µM | > 100 µM | > 100 µM | > 100 µM | > 100 µM
COC(=O)c1ccc(Oc2nc3ccc(C(F)(F)F)cc3nc2-c2ccccc2)cc1 | > 100 µM | > 100 µM | > 100 µM | > 100 µM | > 100 µM | > 100 µM | > 100 µM | > 100 µM
C[C@@H](c1ccccc1)N1C[C@@H](c2ccc3c(c2)OCO3)[C@@H]2C(=O)CCC[C@@H]21 | 77.6 µM | 76 µM | > 100 µM | > 100 µM | > 100 µM | 59.1 µM | 42.4 µM | > 100 µM
CC1(C)CC[C@]2(C)[C@@H](O)C[C@]3(C)C(=CC[C@@H]4[C@@]5(C)CC[C@H](O)C(C)(C)[C@@H]5CC[C@]43C)[C@@H]2C1 | > 100 µM | > 100 µM | > 100 µM | > 100 µM | – | 99.2 µM | > 100 µM | > 100 µM
COC(=O)Cc1cccc2c(=O)c(S(=O)(=O)NC(=O)Nc3ccc(Cl)cc3)c(-c3ccccc3)oc12 | > 100 µM | > 100 µM | > 100 µM | > 100 µM | > 100 µM | – | > 100 µM | > 100 µM
COc1cc(/C=C2\N=C(c3ccccc3)N(c3nc4ccccc4s3)C2=O)cc(OC)c1OC | 46.6 µM | > 100 µM | > 100 µM | > 100 µM | 61 µM | > 100 µM | – | > 100 µM
COc1ccc2nc(N/N=C/c3ccc(C)s3)cc(C)c2c1 | 35.5 µM | > 100 µM | > 100 µM | 35.9 µM | 46.4 µM | – | 38.5 µM | 36.5 µM
O=C1/C(=C/c2ccc([N+](=O)[O-])cc2)CCCc2ccccc21 | > 100 µM | > 100 µM | > 100 µM | > 100 µM | > 100 µM | – | > 100 µM | > 100 µM
CC(=O)OC(OC(C)=O)c1c2ccccc2cc2ccccc12 | 16.9 µM | – | 65.9 µM | 28.3 µM | 43.9 µM | 40.7 µM | 37.2 µM | 53 µM
O=C(CSc1nc2ccc(I)cc2c(=O)n1Cc1ccccc1)NNC(=S)Nc1ccccc1 | > 100 µM | > 100 µM | > 100 µM | > 100 µM | > 100 µM | > 100 µM | > 100 µM | –
COC(=O)[C@H](Cc1ccccc1)NC(=O)OCC1OC(n2cc(C)c(=O)[nH]c2=O)CC1N=[N+]=[N-] (some centres not stated) | > 100 µM | – | > 100 µM | > 100 µM | > 100 µM | – | > 100 µM | > 100 µM
COc1ccc(C/C=C(\C)CCO)cc1 | > 100 µM | – | > 100 µM | > 100 µM | > 100 µM | – | > 100 µM | > 100 µM
C[n+]1c2ccccc2n2c3ccccc3c(NCc3ccco3)c(C#N)c21 | – | 5.75 µM | > 100 µM | 14.7 µM | 6.86 µM | 20.4 µM | 19.9 µM | 7.63 µM
CC(C)CC(C#CCCOC(=O)c1ccccc1)OC(=O)c1ccccc1 (configuration not stated) | > 10 µM | > 10 µM | > 10 µM | > 10 µM | > 10 µM | > 10 µM | – | > 10 µM
